Among the test systems are A549 NSCLC; ACHN renal; COLO 205 colon; EKVX NSCLC; HL-60(TB) leukemia; HOP-62 NSCLC; IGROV1 ovarian; NCI-H226 lung; NCI-H23 lung; SK-MEL-2 melanoma; SK-MEL-5 melanoma; SN12C renal; SNB-75 CNS; SR leukemia; U251 CNS; BT-549 breast; HS 578T breast; MCF7 breast; NCI/ADR-RES ovarian.
What all share (test): inhibition of tumour cell growth, NCI panel, 48 h

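Test compounds were applied to cells in 96-well plates for 48 hours at 5 doses. TGI: total growth inhibition.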 A value given as a limit tells only on which side of the number the result lay.

Take `COc1ccc(CNC2=C(NC(C)=O)C(=O)c3ccccc3C2=O)cc1`: the TGI in the assay with A549 NSCLC was above 50 µM; with ACHN renal it was 8.69 µM; with COLO 205 colon, 16.4 µM; in the assay with EKVX NSCLC, 47.3 µM; in the assay with HL-60(TB) leukemia, 7.45 µM; with HOP-62 NSCLC it was above 50 µM. For the same molecule, the TGI was above 50 µM in the assay with IGROV1 ovarian; above 50 µM in the assay with NCI-H226 lung; 14.7 µM in the assay with NCI-H23 lung; 19.2 µM in the assay on SK-MEL-2 melanoma; 14.1 µM in the assay on SK-MEL-5 melanoma; above 50 µM in the assay with SN12C renal. Also, the figures for the TGI with SNB-75 CNS, with SR leukemia and with U251 CNS were 49.5 µM, above 50 µM and 47.5 µM, respectively.

For `O=C(NCc1ccccc1)c1cc2cc(O)c(O)cc2cn1`, the TGI in the assay with A549 NSCLC was above 100 µM; with ACHN renal, above 100 µM; in the assay with COLO 205 colon, above 100 µM; in the assay with EKVX NSCLC it was above 100 µM; with HL-60(TB) leukemia, 48.6 µM; in the assay on HOP-62 NSCLC it was 81.1 µM. The TGI was 73.2 µM in the assay with IGROV1 ovarian; 89.9 µM with NCI-H226 lung; 46.8 µM in the assay on NCI-H23 lung; 97.6 µM in the assay on SK-MEL-2 melanoma; 50.9 µM in the assay on SK-MEL-5 melanoma; above 100 µM in the assay with SN12C renal. Further, the TGI is 84.5 µM with SNB-75 CNS, above 100 µM with SR leukemia and above 100 µM in the assay on U251 CNS.

For the molecule `Cc1ccc2c(=O)cc(-c3cccc4ccccc34)[nH]c2n1`, the TGI with A549 NSCLC was above 48.1 µM; in the assay with ACHN renal it was above 100 µM; with BT-549 breast, above 94.6 µM; in the assay on COLO 205 colon, 0.676 µM; in the assay on EKVX NSCLC, above 100 µM; with HL-60(TB) leukemia, 0.0318 µM. Besides, the TGI is above 100 µM with HOP-62 NSCLC; above 91.5 µM in the assay on HS 578T breast; above 100 µM in the assay on IGROV1 ovarian; above 43.1 µM with MCF7 breast; 35.2 µM in the assay with NCI-H226 lung; above 100 µM in the assay on NCI-H23 lung. For the same molecule, the TGI in the assay on NCI/ADR-RES ovarian was above 100 µM; in the assay with SK-MEL-2 melanoma, 2.47 µM; in the assay with SK-MEL-5 melanoma, 0.0897 µM; with SN12C renal it was above 100 µM; in the assay on SR leukemia it was above 100 µM; in the assay on U251 CNS, 1.64 µM.

For the molecule `Cc1ccc(OCC2OC(C#N)C(Oc3ccc(C)cc3)C2Oc2ccc(C)cc2)cc1` (stereo not drawn), the TGI in the assay on A549 NSCLC, in the assay on BT-549 breast, with COLO 205 colon, in the assay on EKVX NSCLC, with HL-60(TB) leukemia and with HOP-62 NSCLC was above 100 µM in each case. The TGI in the assay with HS 578T breast, in the assay on IGROV1 ovarian, in the assay with MCF7 breast, with NCI-H226 lung, with NCI-H23 lung and in the assay with NCI/ADR-RES ovarian was above 100 µM in each case. The TGI in the assay on SK-MEL-2 melanoma, with SK-MEL-5 melanoma, in the assay on SN12C renal, in the assay on SNB-75 CNS, in the assay with SR leukemia and in the assay on U251 CNS was above 100 µM each time.

With `CC1(C)C(O)C[C@]23CCC[C@](C)(C[C@@H](O)C12)C3` (stereo partly drawn), the TGI with A549 NSCLC, with ACHN renal, with BT-549 breast, in the assay on COLO 205 colon, with EKVX NSCLC and with HL-60(TB) leukemia was above 100 µM in each case. In addition, the TGI in the assay with HOP-62 NSCLC, in the assay on HS 578T breast, in the assay on IGROV1 ovarian, in the assay on MCF7 breast, in the assay with NCI-H226 lung and in the assay on NCI-H23 lung was above 100 µM throughout. The TGI with NCI/ADR-RES ovarian, in the assay with SK-MEL-2 melanoma, with SK-MEL-5 melanoma, with SN12C renal, in the assay on SNB-75 CNS and in the assay on SR leukemia was above 100 µM each time. Also, the TGI with U251 CNS was above 100 µM.

As to `O=C(O)C1(C(=O)O)CC1(C(=O)O)C(=O)O`, the TGI with A549 NSCLC, in the assay with ACHN renal, with BT-549 breast, in the assay on COLO 205 colon, with EKVX NSCLC and in the assay on HL-60(TB) leukemia was above 100 µM each time. For the same molecule, the TGI with HOP-62 NSCLC, with HS 578T breast, in the assay on IGROV1 ovarian, in the assay with MCF7 breast, in the assay with NCI-H226 lung and in the assay on NCI-H23 lung was above 100 µM throughout. For the same molecule, the TGI in the assay on NCI/ADR-RES ovarian, with SK-MEL-2 melanoma, in the assay on SK-MEL-5 melanoma, in the assay on SN12C renal, with SNB-75 CNS and in the assay with SR leukemia was above 100 µM each time. Further, the TGI in the assay with U251 CNS was above 100 µM.

`COC1O[C@@H]2CCN3C(=O)[C@@H](OC(=O)c4ccc([N+](=O)[O-])cc4)[C@H]1C23` (stereo partly drawn): the TGI in the assay with A549 NSCLC, in the assay with ACHN renal, with COLO 205 colon, in the assay on EKVX NSCLC, with HOP-62 NSCLC and with HS 578T breast was above 100 µM in each case. Moreover, the TGI in the assay with IGROV1 ovarian, in the assay with MCF7 breast, in the assay on NCI-H226 lung, with NCI-H23 lung, in the assay on NCI/ADR-RES ovarian and with SK-MEL-5 melanoma was above 100 µM each time. In addition, the TGI in the assay on SN12C renal, in the assay with SNB-75 CNS, in the assay on SR leukemia and with U251 CNS was above 100 µM each time.

In the case of `O=C(O)C(Cc1c[nH]c2ccccc12)N=Cc1nc(-c2ccccc2)oc1O` (stereo not drawn), the TGI in the assay on A549 NSCLC, with ACHN renal, with COLO 205 colon, with EKVX NSCLC, in the assay on HL-60(TB) leukemia and in the assay on HOP-62 NSCLC was above 100 µM each time. In addition, the TGI in the assay with IGROV1 ovarian, in the assay on NCI-H226 lung, in the assay with NCI-H23 lung, with SK-MEL-2 melanoma, in the assay on SK-MEL-5 melanoma and in the assay on SN12C renal was above 100 µM each time. The TGI with SNB-75 CNS, in the assay on SR leukemia and with U251 CNS was above 100 µM in each case.

As to `O=C(Cn1cc(-c2ccccc2)nn1)NC1CCCC1`, the TGI with A549 NSCLC, in the assay with ACHN renal, in the assay on BT-549 breast, in the assay with COLO 205 colon, with EKVX NSCLC and with HL-60(TB) leukemia was above 100 µM throughout. Further, the TGI in the assay on HOP-62 NSCLC, in the assay on IGROV1 ovarian, in the assay with MCF7 breast, with NCI-H226 lung, with NCI-H23 lung and in the assay on NCI/ADR-RES ovarian was above 100 µM in each case. For the same molecule, the TGI with SK-MEL-2 melanoma, with SK-MEL-5 melanoma, with SN12C renal, in the assay with SNB-75 CNS, in the assay on SR leukemia and with U251 CNS was above 100 µM throughout.

On to `Cc1cc2c(cc1Cl)SC(N/N=C(\N)c1ccc(Cl)cc1)=NS2(=O)=O`, for which the TGI with A549 NSCLC, in the assay on ACHN renal, with BT-549 breast, in the assay on COLO 205 colon, in the assay with EKVX NSCLC and in the assay with HL-60(TB) leukemia was above 100 µM throughout. Further, the TGI is above 100 µM with HOP-62 NSCLC; above 100 µM in the assay with HS 578T breast; above 100 µM with IGROV1 ovarian; 64.7 µM with MCF7 breast; above 100 µM with NCI-H226 lung; above 100 µM in the assay with NCI-H23 lung. Also, the TGI in the assay on NCI/ADR-RES ovarian, in the assay with SK-MEL-5 melanoma, in the assay with SN12C renal, in the assay on SNB-75 CNS and with U251 CNS was above 100 µM in each case.

`COc1ccc(NC(=O)C(=O)C2CNC(=O)NC2=O)c(OC)c1` (stereo not drawn): the TGI in the assay with A549 NSCLC, with ACHN renal, in the assay with COLO 205 colon, in the assay on EKVX NSCLC, with HL-60(TB) leukemia and with HOP-62 NSCLC was above 100 µM in each case. Further, the TGI in the assay with IGROV1 ovarian, in the assay on NCI-H226 lung, in the assay with NCI-H23 lung, in the assay on SK-MEL-2 melanoma, in the assay on SK-MEL-5 melanoma and with SN12C renal was above 100 µM throughout. For the same molecule, the TGI in the assay with SNB-75 CNS, in the assay on SR leukemia and with U251 CNS was above 100 µM throughout.

Take `Cc1ccc([N+](=O)[O-])cc1NC(=O)C(=O)Cc1occc(=O)c1O`: the TGI in the assay on A549 NSCLC, in the assay with ACHN renal, in the assay on COLO 205 colon, in the assay on EKVX NSCLC, in the assay with HL-60(TB) leukemia and in the assay with HOP-62 NSCLC was above 100 µM in each case. In addition, the TGI in the assay with IGROV1 ovarian, with NCI-H226 lung, in the assay with SK-MEL-5 melanoma, in the assay on SN12C renal, in the assay with SNB-75 CNS and in the assay with SR leukemia was above 100 µM throughout. Moreover, the TGI in the assay with U251 CNS is above 100 µM.

As for `CCOC(=O)C(Cc1ccccc1)NC(=O)c1ccc(N=NN(C)C)cc1` (stereo not drawn), the TGI with A549 NSCLC, in the assay with ACHN renal, in the assay with COLO 205 colon, in the assay on EKVX NSCLC, with HL-60(TB) leukemia and in the assay with HOP-62 NSCLC was above 100 µM each time. The TGI in the assay on IGROV1 ovarian, in the assay on NCI-H226 lung, with NCI-H23 lung, with SK-MEL-2 melanoma, in the assay on SK-MEL-5 melanoma and in the assay with SN12C renal was above 100 µM each time. In addition, the TGI with SNB-75 CNS, with SR leukemia and in the assay on U251 CNS was above 100 µM throughout.

For the molecule `C=CCNC(=S)N1c2ccccc2NC(=O)CC1C` (stereo not drawn), the TGI in the assay on A549 NSCLC, with ACHN renal, in the assay on COLO 205 colon, in the assay with EKVX NSCLC, in the assay with HL-60(TB) leukemia and in the assay with HOP-62 NSCLC was above 100 µM each time. The TGI in the assay on IGROV1 ovarian, in the assay on NCI-H226 lung, with NCI-H23 lung, in the assay on SK-MEL-2 melanoma, in the assay on SK-MEL-5 melanoma and in the assay on SN12C renal was above 100 µM in each case. Moreover, the TGI in the assay on SNB-75 CNS, with SR leukemia and in the assay with U251 CNS was above 100 µM throughout.

With `COC(=O)N/N=C(/CCN1CCCC1)CC(c1ccccc1)c1c(O)c2ccccc2oc1=O` (stereo not drawn), the TGI with A549 NSCLC, in the assay on ACHN renal, in the assay with COLO 205 colon, in the assay on EKVX NSCLC, in the assay on HL-60(TB) leukemia and in the assay on HOP-62 NSCLC was above 100 µM in each case. Besides, the TGI in the assay with IGROV1 ovarian, in the assay on NCI-H226 lung, with NCI-H23 lung, in the assay on SK-MEL-2 melanoma, in the assay on SK-MEL-5 melanoma and in the assay on SN12C renal was above 100 µM throughout. In addition, the TGI with SNB-75 CNS, with SR leukemia and in the assay with U251 CNS was above 100 µM in each case.

Turning to `COC1C=CC(C(=O)[N+]2=Cc3[nH]c4ccccc4c3CC2)O1` (stereo not drawn), the TGI with A549 NSCLC, with ACHN renal, with COLO 205 colon, in the assay on EKVX NSCLC, in the assay on HL-60(TB) leukemia and with HOP-62 NSCLC was above 100 µM each time. Also, the TGI with IGROV1 ovarian, in the assay on NCI-H226 lung, in the assay with NCI-H23 lung, in the assay with SK-MEL-2 melanoma, with SK-MEL-5 melanoma and in the assay with SN12C renal was above 100 µM throughout. For the same molecule, the TGI is above 100 µM in the assay on SNB-75 CNS, 82.7 µM in the assay on SR leukemia and above 100 µM with U251 CNS.

For the origin of these results see PubChem BioAssay (NCI).
